{"source": "patent US8367731B2", "about": "“Peritoneal dialysis fluid” (Fresenius Medical Care Deutschland GmbH, priority 2005, dated 2013)", "key": {"[1]": {"system": "complement activation (C3a-desarg)", "experiment": "in vitro complement activation, C3a-desarg measured by ELISA after Zymosan addition", "assay_type": "biochemical, rat", "description": "The complement activation was determined from the concentration of C3a-desarg measured by ELISA (rat C3adesARG ELISA #CL89160K; Cedarlane Laboratories Ltd., Hornby, Ontario, Canada). The C3a-desarg levels were expressed as concentrations. Venous blood was used and introduced in a lepirudin treated 5 cc syringe (50 μl lepirudin (5 mg/ml)+70 μl PBS in the syringe and needle). 0.4 ml was transferred to a 3 cc tube with 1.5 ml PD fluid with citrate additions of 0, 2, 4, 6, 8, and 10 mM, respectively, (i.e. 0, 12, 24, 36, 48, 60 μl of a citrate solution with the citrate concentration of 250 mM). Thereafter the samples were spun to remove the blood cells. 1 ml of the supernatant was transferred to a new tube, 20 μl Zymosan (20 mg/ml) was added and the tube. Thereafter EDTA was added to a final concentration of 15 mM, the Zymosan was spun down, and samples of the supernatant were used for the ELISA measurement referred to above. […] However, the upper limit of citrate, which could be present in a PD fluid, is limited by the total amount of buffer solution within the PD fluid. The amount of added citrate influence the total amount of buffer in the PD fluid since citrate also give rise to a buffer effect. Thus, the buffer used in the PD fluid has to be decreased equal to the equivalent amount of added citrate. […]"}, "[2]": {"experiment": "in vivo ultrafiltration volume, intraperitoneal volume by Texas Red labelled albumin dilution", "details": "10 mM citrate in PD fluid; 2 hours after infusion; FIG. 2", "description": "The lower limit of the citrate concentration is evident from FIG. 1, where a reasonable inhibited complement cascade is provided with a citrate concentration of at least 4 mM. The ultrafiltration volume was determined with the aid of a fluorescence labelled albumin. This was used as volume marker according to a recently developed technique, in which Texas Red® labelled bovine serum albumin (TR-BSA) has been used as a tracer for determinations of plasma volume. The fluorescence characteristics of TR-BSA (Molecular Probes, Eugene, Oreg., USA) solved in fresh and used PD fluid were evaluated, showing a linear relationship between fluorescence (excitation at 570 nm and emission at 615 nm) and concentration in the range of 0-20 μg/ml. By adding 1 mg/ml of unlabeled bovine serum albumin, a small difference in baseline fluorescence between the fresh and the used PD fluid was eliminated. […] In the present tests, 100 μg Texas Red® labelled bovine serum albumin and 1 mg unlabeled BSA was added to 20 ml PD fluid and intraperitoneal volumes were determined from the dilution calculated from fluorescence values of cell-free samples. The intraperitoneal volumes obtained from measurements of Texas Red® albumin after PD fluid exposure increased when citrate was added to the PD fluid, see FIG. 2. The citrate concentration used in the test of FIG. 2 was 10 mM."}}, "note": "Counter-ions that a name gives are not always drawn.", "data": [{"compound": "O=C(O)CC(O)(CC(=O)O)C(=O)O", "note": "[citrate, tri-sodium citrate]", "values": [{"measurement": "citrate concentration providing a reasonable inhibited complement cascade", "setting": "[1]; read from FIG. 1, lower limit of citrate in PD fluid", "value": "at least 4 mM"}, {"measurement": "C3a-desarg concentration (complement activation)", "setting": "[1]; venous blood in PD fluid with citrate additions of 0, 2, 4, 6, 8 and 10 mM, Zymosan, FIG. 1", "value": "decreased with increasing citrate concentration"}, {"measurement": "intraperitoneal volumes (ultrafiltration) after PD fluid exposure", "setting": "[2]", "value": "increased"}]}]}
